In brackets after ≈: the same amount, converted by molar mass.
Experiments:
[1] = system: Balanus improvisus cyprid larvae; assay: whole plant or invertebrate; format: in vivo; settings: for IC50: Amphibalanus improvisus, 120 h, read-out: IC50 (cyprid settlement inhibition)
In short: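 Freshly molted cyprids (18–22 per dish) exposed in filtered seawater to 0.1–10 μg/mL compound (0.1% DMSO controls) for 5 days at 20–25 °C. Settled, swimming and dead larvae counted by microscope; IC50 is the concentration preventing 50% settlement, n = 4, determined only for compounds inhibiting >50% at 5 μg/mL.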

Halamphora coffeaeformis [2] = assay: Microalgal adhesion assay (chlorophyll a); format: cell-based; settings: Halamphora coffeiformis, 120 h, 5 days incubation, 10–0.01 μg/mL tested, read-out: MIC against the adhesion (A) of microalgae, H. coffeaformis
From the text: (§1) Cyprid larvae of B. improvisus were reared in a laboratory cultivating system at Tjärnö Marine Biological Laboratory, University of Gothenburg, Sweden, as previously described by Berntsson et al. ([2000]). Four pure, but non-axenic, marine microalgae (obtained from Algobank, Caen, France) and 10 marine bacterial strains were used (Table 1) as representative microfoulers. These strains represent fouling species encountered in both estuarine and marine environments (Moodie et al. [2017b]). The bacteria were grown at 26 °C in a marine medium, composed of 0.5% peptone (neutralized bacteriological peptone, Oxoid Ltd.) in filtered (Whatman 1001–270, pore size 11 μm) natural seawater. Microalgae were grown and maintained at 22 °C in F/2 medium.
(§2) Microplates containing the compounds in ranging concentrations (10–0.01 μg/mL) were prepared from MeOH stock solutions as previously described (Trepos et al. [2014]; Moodie et al. [2017a]). Microalgal stock solutions were prepared using the chlorophyll analysis methodology of Chambers et al. ([2011]). The pretreated microplate wells were treated with 100 μL of the algal stock solutions (0.1 mg chlorophyll a/mL). The plates were then incubated for 5 days at 20 °C under constant light exposure (140 μmol m^−2 s^−1). Both microalgal adhesion and growth inhibition were measured. Growth was determined by analysis of liberated chlorophyll a after centrifugation and methanol addition. Chlorophyll a was quantified fluorometrically. MIC value for algal growth was defined as the lowest concentration yielding a decrease in chlorophyll a content. Microalgal adhesion was determined in an analogous manner where the non-attached algal cells were removed prior to methanol addition (100 μL), releasing chlorophyll a from the remaining algal biofilms. The MIC for adhesion was defined as the lowest compound concentration causing a reduction in […]. Toxicity experiments were performed in an analogous manner to those described for the bacterial assays.

marine bacteria [3] = assay: Bacterial growth assay, whole panel of ten strains; format: cell-based, 10 marine bacterial strains; settings: tested up to 10 μg/mL
From the text: as §1
(§3) Bacterial strain adhesion and growth were determined according to the methods of Thabard et al. ([2011]). Bacterial suspensions (100-μL aliquots, 2 × 10^8 colony forming units/mL) were aseptically added to the compound containing microplate wells (10–0.01 μg/mL), and the plates were incubated for 48 h at 26 °C. Media only was used as a blank. Bacterial growth was monitored spectroscopically at 630 nm. The minimal inhibitory concentration (MIC) for bacterial growth was defined as the lowest concentration which results in a decrease in OD. After 48-h incubation time, the bacterial adhesion assay was conducted by emptying the wells and rinsing with sterile seawater (100 μL) to remove non-attached cells, and air-drying at room temperature. The residual bacterial biofilm was stained with aqueous crystal violet (100 μL, 0.3% v/v) and the OD measured at 595 nm (Sonak and Bhosle [1995]). […] If inhibition was observed, toxicity tests were conducted. The well contents were transferred into a flask of fresh media, and growth was measured after 5 days of additional incubation. The mode of action was deemed biostatic if an increase in OD was measured at 595 nm (Moodie et al. [2017a]).

Vibrio proteolyticus [4] = assay: Bacterial adhesion assay (crystal violet, OD 595 nm); format: cell-based; settings: 48 h, read-out: MIC against the adhesion of marine bacteria, V.p.
From the text: as §1, §3

Vibrio aestuarianus [5] = assay: as above; format: cell-based; settings: 48 h, read-out: MIC against the adhesion of marine bacteria, V.a.
From the text: as §1, §3

Halomonas aquamarina [6] = assay: as above; format: cell-based; settings: Vreelandella aquamarina, 48 h incubation, 10–0.01 μg/mL tested, read-out: MIC against the adhesion of marine bacteria, H.a.
From the text: as §1, §3

Vibrio carchariae [7] = assay: as above; format: cell-based; settings: Vibrio harveyi, 48 h, read-out: MIC against the adhesion of marine bacteria, V.c.
From the text: as §1, §3

Vibrio harveyi [8] = assay: as above; format: cell-based; settings: 48 h, read-out: MIC against the adhesion of marine bacteria, V.h.
From the text: as §1, §3

microalgae = assay: Microalgal adhesion and growth, whole panel of four species; format: cell-based, four marine microalgae; settings: 10–0.01 μg/mL tested
From the text: as §1, §2

marine bacteria [9] = assay: Bacterial adhesion assay, whole panel of ten strains; format: cell-based, 10 marine bacterial strains; settings: tested up to 10 μg/mL, active = MIC of 10 μg/mL or below
From the text: as §1, §3

[10] = system: Pleurochrysis roscoffensis; assay: Microalgal growth assay (chlorophyll a); format: cell-based; settings: Chrysotila roscoffensis, 120 h, 5 days incubation, 10–0.01 μg/mL tested, read-out: MIC against the growth (G) of microalgae, P. roscoffensis
From the text: as §1, §2

Porphyridium purpureum [11] = assay: Microalgal growth assay (chlorophyll a); format: cell-based; settings: 120 h, 5 days incubation, 10–0.01 μg/mL tested, read-out: MIC against the growth (G) of microalgae, P. purpureum
From the text: as §1, §2

Halamphora coffeaeformis [12] = assay: Microalgal growth assay (chlorophyll a); format: cell-based; settings: Halamphora coffeiformis, 120 h, 5 days incubation, 10–0.01 μg/mL tested, read-out: MIC against the growth (G) of microalgae, H. coffeaformis
From the text: as §1, §2

Cylindrotheca closterium [13] = assay: Microalgal growth assay (chlorophyll a); format: cell-based; settings: 120 h, 5 days incubation, 10–0.01 μg/mL tested, read-out: MIC against the growth (G) of microalgae, C. closterium
From the text: as §1, §2

[14] = system: Pleurochrysis roscoffensis; assay: Microalgal adhesion assay (chlorophyll a); format: cell-based; settings: Chrysotila roscoffensis, 120 h, 5 days incubation, 10–0.01 μg/mL tested, read-out: MIC against the adhesion (A) of microalgae, P. roscoffensis
From the text: as §1, §2

Porphyridium purpureum [15] = assay: Microalgal adhesion assay (chlorophyll a); format: cell-based; settings: 120 h, 5 days incubation, 10–0.01 μg/mL tested, read-out: MIC against the adhesion (A) of microalgae, P. purpureum
From the text: as §1, §2

Cylindrotheca closterium [16] = assay: Microalgal adhesion assay (chlorophyll a); format: cell-based; settings: 120 h, 5 days incubation, 10–0.01 μg/mL tested, read-out: MIC against the adhesion (A) of microalgae, C. closterium
From the text: as §1, §2

Vibrio proteolyticus [17] = assay: Bacterial growth assay (OD 630 nm); format: cell-based; settings: 48 h incubation, 10–0.01 μg/mL tested, read-out: MIC against the growth of marine bacteria, V.p.
From the text: as §1, §3

Vibrio aestuarianus [18] = assay: Bacterial growth assay (OD 630 nm); format: cell-based; settings: 48 h incubation, 10–0.01 μg/mL tested, read-out: MIC against the growth of marine bacteria, V.a.
From the text: as §1, §3

Shewanella putrefaciens = assay: Bacterial growth assay (OD 630 nm); format: cell-based; settings: 48 h incubation, 10–0.01 μg/mL tested, read-out: MIC against the growth of marine bacteria, S.p.
From the text: as §1, §3

Vibrio natriegens = assay: Bacterial growth assay (OD 630 nm); format: cell-based; settings: 48 h incubation, 10–0.01 μg/mL tested, read-out: MIC against the growth of marine bacteria, V.n.
From the text: as §1, §3

Halomonas aquamarina [19] = assay: Bacterial growth assay (OD 630 nm); format: cell-based; settings: Vreelandella aquamarina, 48 h incubation, 10–0.01 μg/mL tested, read-out: MIC against the growth of marine bacteria, H.a.
From the text: as §1, §3

Vibrio carchariae [20] = assay: Bacterial growth assay (OD 630 nm); format: cell-based; settings: Vibrio harveyi, 48 h incubation, 10–0.01 μg/mL tested, read-out: MIC against the growth of marine bacteria, V.c.
From the text: as §1, §3

[21] = system: Pseudoalteromonas elyakovii; assay: Bacterial growth assay (OD 630 nm); format: cell-based; settings: 48 h incubation, 10–0.01 μg/mL tested, read-out: MIC against the growth of marine bacteria, P.e.
From the text: as §1, §3

Roseobacter litoralis = assay: Bacterial growth assay (OD 630 nm); format: cell-based; settings: 48 h incubation, 10–0.01 μg/mL tested, read-out: MIC against the growth of marine bacteria, R.l.
From the text: as §1, §3

Vibrio harveyi [22] = assay: Bacterial growth assay (OD 630 nm); format: cell-based; settings: 48 h incubation, 10–0.01 μg/mL tested, read-out: MIC against the growth of marine bacteria, V.h.
From the text: as §1, §3

COc1cc(OC)cc(C(Cc2ccccc2)=NO)c1 [Compound 15, 1-(3,5-Dimethoxyphenyl)-1-Hydroxyimino-2-Phenylethane]
IC50 [1]: 0.75 µg/mL (≈ 2.76 µM) | MIC (Halamphora coffeaeformis [2]): 10 µg/mL (≈ 36.9 µM) | MIC / activity against the growth of all bacteria tested (marine bacteria [3]): ^aCompound 15 was inactive against the growth of all bacteria tested up to 10 μg/mL | MIC (Vibrio proteolyticus [4]): > 10 µg/mL | MIC (Vibrio aestuarianus [5]): 10 µg/mL (≈ 36.9 µM) | MIC (Halomonas aquamarina [6]): 10 µg/mL (≈ 36.9 µM) | MIC (Vibrio carchariae [7]): 10 µg/mL (≈ 36.9 µM) | MIC (Vibrio harveyi [8]): 10 µg/mL (≈ 36.9 µM) | MIC / activity against the attachment and growth of microalgae (microalgae): not significantly active | MIC / activity against the adhesion of all bacteria tested (marine bacteria [9]): displayed inhibitory activities | MIC [10]: > 10 µg/mL | MIC (Porphyridium purpureum [11]): > 10 µg/mL | MIC (Halamphora coffeaeformis [12]): > 10 µg/mL | MIC (Cylindrotheca closterium [13]): > 10 µg/mL

COc1ccc(CC(=NO)c2ccc(O)c(OC)c2)cc1 [Compound 11, 1-(3-methoxy-4-hydroxyphenyl)-1-hydroxyimino-2-(4’-methoxyphenyl)-ethane]
IC50 [1]: > 5 µg/mL | inhibition of cyprid settlement in the initial screen ([1]; B. improvisus, at 5.0 μg/mL): inactive | Toxicity (%) (dead cyprids) ([1]; Balanus improvisus, in vivo, 5 days, 5 μg/mL): 5.3% | MIC [14]: > 10 µg/mL | MIC (Porphyridium purpureum [15]): > 10 µg/mL | MIC (Cylindrotheca closterium [16]): > 10 µg/mL | MIC / activity against the adhesion of all bacteria tested (marine bacteria [9]): ^aCompounds 7, 8, 10, 11, and 12 were inactive against the adhesion of all bacteria tested up to 10 μg/mL | MIC (Vibrio proteolyticus [17]): > 10 µg/mL | MIC (Vibrio aestuarianus [18]): > 10 µg/mL | MIC (Shewanella putrefaciens): > 10 µg/mL | MIC (Vibrio natriegens): > 10 µg/mL | MIC (Halomonas aquamarina [19]): 10 µg/mL (≈ 34.8 µM) | MIC (Vibrio carchariae [20]): > 10 µg/mL | MIC [21]: > 10 µg/mL | MIC (Roseobacter litoralis): > 10 µg/mL | MIC (Vibrio harveyi [22]): > 10 µg/mL | MIC [10]: 10 µg/mL (≈ 34.8 µM) | MIC (Porphyridium purpureum [11]): 10 µg/mL (≈ 34.8 µM) | MIC (Halamphora coffeaeformis [12]): > 10 µg/mL | MIC (Cylindrotheca closterium [13]): 10 µg/mL (≈ 34.8 µM)

Source: paper PMC5889410, “Design and Biological Evaluation of Antifouling Dihydrostilbene Oxime Hybrids” (Marine Biotechnology (New York, N.y.), 2018)
